Values quoted from earlier work in patent publication US20030113362A1, “Unique ascorbic acid derivatives with essential amino acids, nonessential amino acid and amino acids that do not occur in protein: the process for their preparation and use in research, medicine, physiology, pharmacology, nutrition, pharmaceuticals, and for cosmetic, commercial and industrial …” (priority 2001, published 2003).

Conditions: compared with ascorbic acid; test conditions not given

SMILES: O=C1O[C@H]([C@@H](O)CO)C(O)=C1OS(=O)(=O)O [L-ascorbate 2-sulphate]
- stability, times more stable than ascorbic acid: 20 times
